Entries after “also recorded” stand apart in the source; their conditions may differ.
Assays:
Parabacteroides bacteria [1] = test: Human fecal culture, 60 subjects, genus-level analysis (Test Example 3); assay type: cell-based; settings: 0.25% substance, n=60 fecal samples, 1 day at 37° C., anaerobic, versus distilled water; Wilcoxon's signed rank test, p=3.59×10^−8
Protocol: Galactosylkojibiose (trisaccharide fraction) was added at a concentration of 0.25% to a diluted fecal solution in which feces of healthy adult origin were suspended in the GAM Semisolid without Dextrose “Nissui” (Nissui Pharmaceutical Co., Ltd.) from which agar was removed by filtration (n=60). The galactosylkojibiose (trisaccharide fraction) was the fractionated and purified product containing 4′-galactosylkojibiose as the main ingredient prepared in Production Example 2. The fecal samples for 60 subjects were aliquoted under refrigerated conditions immediately after excretion and frozen at −80° C. until use. The test was performed for each of the fecal samples without mixing them. The medium used for the test was allowed to stand in an anaerobic glove box at least overnight before use. For the culture, a 96-well deepwell plate was used, and the culture was performed for 1 day at 37° C. in an anaerobic environment. The prebiotic ability of the added evaluation substance was evaluated by comparing the bacterial flora observed after the culture with that obtained under the control condition in which distilled water was added instead of the evaluation substance. […] The resulting fastq files were analyzed with QIIME2 (https://qiime2.org/) to calculate the relative abundance of each intestinal bacterium.

[2] = system: Parabacteroides distasonis; test: Human fecal culture, 60 subjects, species-level analysis (Test Example 3); assay type: cell-based; settings: 0.25% substance, n=60 fecal samples, 1 day at 37° C., anaerobic, versus distilled water; Wilcoxon's signed rank order test, p=2.07×10^−8
Protocol: Galactosylkojibiose (trisaccharide fraction) was added at a concentration of 0.25% to a diluted fecal solution in which feces of healthy adult origin were suspended in the GAM Semisolid without Dextrose “Nissui” (Nissui Pharmaceutical Co., Ltd.) from which agar was removed by filtration (n=60). The galactosylkojibiose (trisaccharide fraction) was the fractionated and purified product containing 4'-galactosylkojibiose as the main ingredient prepared in Production Example 2. The fecal samples for 60 subjects were aliquoted under refrigerated conditions immediately after excretion and frozen at -80° C. until use. The test was performed for each of the fecal samples without mixing them. The medium used for the test was allowed to stand in an anaerobic glove box at least overnight before use. […] The prebiotic ability of the added evaluation substance was evaluated by comparing the bacterial flora observed after the culture with that obtained under the control condition in which distilled water was added instead of the evaluation substance. […] The resulting fastq files were analyzed with QIIME2 (https://qiime2.org/) to calculate the relative abundance of each intestinal bacterium. […] The resulting fastq files were analyzed with QIIME2 (https://qiime2.org/), and confirmed that it was classified as that of […] at the bacterial species level. […]

lactase = target: T1, lactase (Kluyveromyces lactis, UniProt P00723); test: Lactase treatment of the trisaccharide fraction, LCMS analysis; assay type: biochemical; settings: 10% in phosphate-citrate buffer pH 6.5, 0.1% lactase (GODO-YNL), 40° C.
T1 construct: purchased Godo Shusei Co., Ltd. GODO-YNL
Protocol: The purified trisaccharide fraction was lyophilized and dissolved in a phosphate-citrate buffer, pH 6.5 at a concentration of 10%. Then, 0.1% of lactase (product name GODO-YNL, Godo Shusei Co., Ltd.) was added to the solution, and the enzymatic reaction was allowed at 40° C.

Bifidobacterium bacteria = test: Human fecal culture system, relative abundance by 16S V3-V4 amplicon sequencing (Test Example 1); assay type: cell-based; settings: 1% substance; for Change in relative abundance of Bifidobacterium bacteria: feces of two healthy adults, 2 days at 37° C., anaerobic, pH 6.5, versus control without substance
Protocol: (§1) Each substance to be evaluated was added at a concentration of 1% to a diluted fecal solution in which feces of healthy adult origin were suspended in the GAM Semisolid without Dextrose “Nissui” (Nissui Pharmaceutical Co., Ltd.) for GAM glycolysis from which agar was removed by filtration. Fecal materials of two individuals were each tested without mixing them. The medium used for the test was allowed to stand in an anaerobic glove box at least overnight before use. For the culture, a microbioreactor BioLector Pro […]-Labs) and a plate with microfluidic channels were used, and the culture was performed for 2 days at 37° C. and 600 rpm in an anaerobic environment while maintaining a constant pH of 6.5 with 1.5 N HCl and sodium hydroxide during the culture. The prebiotic abilities of the added substances were evaluated by comparing the bacterial flora obtained after the culture with that obtained under the control condition in which the substances to be evaluated were not added. DNA was extracted and purified from the diluted fecal solutions after the culture by using Maxwell RSC PureFood GMO & Authentication Kit (Promega), and amplicon sequencing of the V3-V4 region was performed by using MiSeq (Illumina). The resulting fastq files were analyzed with QIIME2 (https://quime2.org/) to calculate the relative abundance of each intestinal bacterium.

Parabacteroides bacteria [3] = test: as above; assay type: cell-based; settings: 1% substance, feces of two healthy adults, 2 days at 37° C., anaerobic, pH 6.5, versus control without substance
Protocol: as §1

bifidobacteria = settings: known from Non-patent documents 7 and 8; cited from earlier work

T1 sequence (P00723 whole entry): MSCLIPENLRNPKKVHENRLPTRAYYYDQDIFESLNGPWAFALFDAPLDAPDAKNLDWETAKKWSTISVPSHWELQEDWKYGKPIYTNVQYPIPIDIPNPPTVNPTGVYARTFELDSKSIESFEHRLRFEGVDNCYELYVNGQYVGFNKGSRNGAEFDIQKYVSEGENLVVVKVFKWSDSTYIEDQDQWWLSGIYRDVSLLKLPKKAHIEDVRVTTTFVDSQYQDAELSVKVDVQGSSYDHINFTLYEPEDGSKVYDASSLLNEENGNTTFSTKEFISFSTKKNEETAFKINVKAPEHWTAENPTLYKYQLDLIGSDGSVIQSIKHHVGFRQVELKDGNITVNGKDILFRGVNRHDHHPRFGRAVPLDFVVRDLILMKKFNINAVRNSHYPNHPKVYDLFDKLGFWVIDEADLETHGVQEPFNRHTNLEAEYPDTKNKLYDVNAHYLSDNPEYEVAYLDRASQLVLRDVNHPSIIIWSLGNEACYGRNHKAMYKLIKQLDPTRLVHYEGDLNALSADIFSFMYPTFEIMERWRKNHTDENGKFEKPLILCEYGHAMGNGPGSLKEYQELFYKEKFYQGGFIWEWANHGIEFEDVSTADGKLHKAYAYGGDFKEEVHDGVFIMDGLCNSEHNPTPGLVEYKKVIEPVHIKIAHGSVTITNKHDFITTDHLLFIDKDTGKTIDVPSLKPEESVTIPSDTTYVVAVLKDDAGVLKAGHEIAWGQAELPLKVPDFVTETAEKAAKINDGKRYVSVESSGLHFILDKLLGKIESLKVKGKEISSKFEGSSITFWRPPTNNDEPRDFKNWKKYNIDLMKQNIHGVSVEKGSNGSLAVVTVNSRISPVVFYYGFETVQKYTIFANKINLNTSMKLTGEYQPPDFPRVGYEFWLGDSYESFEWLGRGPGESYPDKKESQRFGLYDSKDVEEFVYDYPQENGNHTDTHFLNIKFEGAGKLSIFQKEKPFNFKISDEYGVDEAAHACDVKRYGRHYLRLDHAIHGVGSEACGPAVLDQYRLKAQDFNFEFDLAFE

SMILES | Change in relative abundance of Parabacteroides bacteria (genus level) (Parabacteroides bacteria [1]) | Change in relative abundance of species indicated as “Parabacteroides_” (judged Parabacteroides distasonis) [2] | Product formed by lactase treatment (lactase) | Increase of relative abundance of Bifidobacterium bacteria compared with kojibiose (Bifidobacterium bacteria; all samples of the two subjects, comparison with kojibiose) | Change in relative abundance of Bifidobacterium bacteria (Bifidobacterium bacteria) | Change in relative abundance of Parabacteroides bacteria (Parabacteroides bacteria [3]) | Effect on growth of bifidobacteria (bifidobacteria)
OCC1O[C@H](OC2C(O)[C@H](O[C@@H]3OC(CO)[C@H](O)C(O)C3O)C(CO)O[C@H]2O)C(O)C(O)[C@@H]1O (stereo partly drawn) [α-D-Glcp-(1→2)-[β-D-Galp-(1→4)-]D-Glcp] | significant increase | significant increase; also recorded: significantly increased | formation of kojibiose | more significantly increased | increased | increase | –
OCC1OC(O)C(O[C@H]2OC(CO)[C@@H](O)[C@H](O)C2O)[C@@H](O)[C@@H]1O (stereo partly drawn) [kojibiose] | – | – | – | – | increased | increase | growth-promoting effect

— patent US20260060993A1, “COMPOSITION FOR IMPROVEMENT OF INTESTINAL FLORA” (MEIJI CO., LTD., priority 2022, published 2026)
